From article PMC7598271, “In Vitro Studies to Define the Cell-Surface and Intracellular Targets of Polyarginine-Conjugated Sodium Borocaptate as a Potential Delivery Agent for Boron Neutron Capture Therapy” (Cells, 2020)

Experiments:
[1] = system: U251MG cells; assay: Immunofluorescent analysis of cellular uptake with anti-BSH antibody; type: cell-based, human; settings: U251 glioma cells, 20 µM, immunofluorescent analysis (Figure 1B)
Experimental: Human glioma cell lines U87MG and U251MG, human breast cancer cell lines MCF7 and MDA-MB-231, human pancreatic cancer cell lines CFPAC1 and PANC1, and murine mammary gland cell line NMuMG, were cultured in Dulbecco’s modified Eagle’s medium (DMEM) (FUJIFILM Wako Pure Chemical Corporation, Osaka, Japan) with 10% fetal bovine serum (FBS) (Corning Inc., Corning, NY, USA) and penicillin/streptomycin/L-glutamine (Fujifilm-Wako, Japan) as previously described. U87MG, MDA-MB-231, CFPAC-1, PANC-1, and NMuMG were obtained from the American Type Culture Collection (ATCC, Manassas, VA, USA) (catalogue number: HTB-14, HTB-26, CRL-1918, CRL-1469, and CRL-1636, respectively). U251MG and MCF7 were obtained from the Japanese Collection of Research Bioresources Cell Bank (JCRB, Ibaraki, Japan) (catalogue number: IFO50288 and JCRB0134, respectively).
(§1) The immunostaining of cells was performed as previously described with brief modifications. The cells were fixed with 4% paraformaldehyde (PFA) for 15 min, permeated with 0.05% Triton X-100 for 10 min, and blocked with 5% goat serum. Then, the samples were incubated with primary antibodies for 16 h at 4 °C and secondary antibodies for 1 h at room temperature. Primary antibodies against CD44 were purchased from Abcam (Cambridge, UK) (ab157107). Antibodies against the BSH molecule (clone#: 36-2H or 38-5C) were developed by ITM Co., Ltd. (Nagano, Japan). […]

[2] = system: CD44 protein; assay: Immunoprecipitation with anti-BSH antibody and Western blotting for CD44; type: binding, human; settings: MDA-MB-231 cell lysate 2000 µg/mL, compound 20 µM, 1 h at 4 °C, anti-BSH antibody 10 µg/mL, Western blotting (Figure 3A)
Experimental: (§2) Western blotting was performed as previously described. The cells were lysed in cell lysis buffer (20 mM Tris-HCl (pH =7.5), 150 mM NaCl, 1 mM EDTA, 1 mM Na2EGTA (ethylene glycol-bis(β-aminoethyl ether)-N,N,N′,N′-tetraacetic acid), 0.5% Triton X-100) supplemented with cOmplete Protease Inhibitor Cocktail (Sigma-Aldrich Co. LLC, St. Louis, MO, USA), and PhosSTOP phosphatase inhibitor cocktail (Sigma-Aldrich Co. LLC, St. Louis, MO, USA). After sonication and centrifugation (15,000 rpm, 4 °C, 10 min), the protein concentration of the supernatants was measured using a bicinchoninic acid (BCA) protein assay (Thermo Fisher Scientific, Inc., Waltham, MA, USA). The supernatants were added to 1/3 volume of 4x SDS sample buffer (240 mM Tris-HCl (pH=6.8), 8% sodium dodecyl sulfate (SDS), 40% glycerol, 0.1% bromophenol blue, 20% 2-mercaptoethanol) and boiled at 95 °C for 5 min. Then, the samples were applied to SDS-polyacrylamide gel electrophoresis (PAGE) and transferred to polyvinylidene fluoride (PVDF) membrane (Immobilon-P, 0.45 µm) (MilliporeSigma, Burlington, MA, USA). […] The signals were developed with Clarity Western enhanced chemiluminescence (ECL) Substrate (Bio-Rad Laboratories, Inc., Hercules, CA, USA) and detected with a ChemiDoc imaging system (Bio-Rad Laboratories, Inc., Hercules, CA, USA). […]

[3] = system: NMuMG-GFP, NMuMG-HRas/shp53 and NMuMG-HRas/shp53/YAP1 cells; assay: Immunofluorescent analysis of uptake in transformed NMuMG cells; type: cell-based, murine; settings: BSH 2 mM, NMuMG-HRas/shp53, NMuMG-HRas/shp53/YAP1 (Figure 4C)
Text: For transformation of the NMuMG cells, we prepared virus particles of pTomo-HRas/shRNA-p53 (Vector plasmid was a kind gift from Dr. Dinorah Morvinski, Tel Aviv University), pTomo (Addgene, #26291), FUW-tetO-wtYAP (Addgene, #84009), and FUdeltaGW-rtTA (Addgene, #19780), and infected cells in the same manner as written above. After the infection of pTomo viruses (pTomo-HRas/shRNA-p53 was used for malignant transformation, with pTomo for a negative control), the cells were further treated with adenovirus harboring Cre recombinase (cat#ADV-005) (Cell Biolabs Inc., San Diego, CA, USA), to activate the HRas expression cassette. The transformation was confirmed by the acquisition of the spheroid-forming capacity and morphological change (epithelial to spindle form).
as §1

[4] = target: T1, poly(A)-binding protein 1 (PABP1) (Homo sapiens, UniProt P11940); assay: Immunoprecipitation with anti-BSH antibody from U251 cell lysate, Western blotting
T1 construct: we performed immunoprecipitation from the pre-cleaned lysate of U251 cells; endogenous in cells; host or cells: U251 (U251MG) glioma cells
T1 sequence (P11940 whole entry): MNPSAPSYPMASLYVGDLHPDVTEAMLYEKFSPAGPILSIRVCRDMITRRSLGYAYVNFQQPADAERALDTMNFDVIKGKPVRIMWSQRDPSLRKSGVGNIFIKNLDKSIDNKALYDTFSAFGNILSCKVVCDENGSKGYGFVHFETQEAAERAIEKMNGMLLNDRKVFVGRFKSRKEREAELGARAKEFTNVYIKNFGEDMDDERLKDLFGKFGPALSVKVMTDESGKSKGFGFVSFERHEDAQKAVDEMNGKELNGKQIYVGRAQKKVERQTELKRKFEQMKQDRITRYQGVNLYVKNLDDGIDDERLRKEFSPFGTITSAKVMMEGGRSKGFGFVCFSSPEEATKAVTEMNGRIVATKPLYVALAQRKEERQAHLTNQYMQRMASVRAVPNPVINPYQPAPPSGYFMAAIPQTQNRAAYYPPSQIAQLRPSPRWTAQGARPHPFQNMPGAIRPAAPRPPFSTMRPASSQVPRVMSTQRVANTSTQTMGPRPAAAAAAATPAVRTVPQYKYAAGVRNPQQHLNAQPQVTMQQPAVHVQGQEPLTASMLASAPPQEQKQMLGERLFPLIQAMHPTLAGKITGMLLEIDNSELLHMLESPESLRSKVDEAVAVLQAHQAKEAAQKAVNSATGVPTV
Experimental: (§3) Western blotting was performed as previously described. The cells were lysed in cell lysis buffer (20 mM Tris-HCl (pH =7.5), 150 mM NaCl, 1 mM EDTA, 1 mM Na2EGTA (ethylene glycol-bis(β-aminoethyl ether)-N,N,N′,N′-tetraacetic acid), 0.5% Triton X-100) supplemented with cOmplete Protease Inhibitor Cocktail (Sigma-Aldrich Co. LLC, St. Louis, MO, USA), and PhosSTOP phosphatase inhibitor cocktail (Sigma-Aldrich Co. LLC, St. Louis, MO, USA). After sonication and centrifugation (15,000 rpm, 4 °C, 10 min), the protein concentration of the supernatants was measured using a bicinchoninic acid (BCA) protein assay (Thermo Fisher Scientific, Inc., Waltham, MA, USA). The supernatants were added to 1/3 volume of 4x SDS sample buffer (240 mM Tris-HCl (pH=6.8), 8% sodium dodecyl sulfate (SDS), 40% glycerol, 0.1% bromophenol blue, 20% 2-mercaptoethanol) and boiled at 95 °C for 5 min. Then, the samples were applied to SDS-polyacrylamide gel electrophoresis (PAGE) and transferred to polyvinylidene fluoride (PVDF) membrane (Immobilon-P, 0.45 µm) (MilliporeSigma, Burlington, MA, USA). The membranes were blocked with 0.5% skim milk (nacalai tesque, Kyoto, Japan) in tris-buffered saline with tween20 (TBST, 137 mM NaCl, 2.68 mM KCl, 25 mM Tris (pH=7.4), 0.1% Tween20) and incubated with primary antibodies for 16 h at 4 °C and secondary antibodies for 1 h at room temperature. The signals were developed with Clarity Western enhanced chemiluminescence (ECL) Substrate (Bio-Rad Laboratories, Inc., Hercules, CA, USA) and detected with a ChemiDoc imaging system (Bio-Rad Laboratories, Inc., Hercules, CA, USA).
(§4) Immunoprecipitation was performed as previously described with modification. Briefly, the cells were lysed in cell lysis buffer supplemented with cOmplete Protease Inhibitor Cocktail and PhosSTOP phosphatase inhibitor cocktail. The lysate was passed through a 23G needle syringe 10 times and centrifuged at 15,000 rpm, at 4 °C, for 10 min. […]

[5] = target: T2, eIF4G (Homo sapiens, UniProt Q04637); assay: as above; type: binding
T2 construct: we performed immunoprecipitation from the pre-cleaned lysate of U251 cells; endogenous in cells; host or cells: U251 (U251MG) glioma cells
T2 sequence (Q04637 whole entry): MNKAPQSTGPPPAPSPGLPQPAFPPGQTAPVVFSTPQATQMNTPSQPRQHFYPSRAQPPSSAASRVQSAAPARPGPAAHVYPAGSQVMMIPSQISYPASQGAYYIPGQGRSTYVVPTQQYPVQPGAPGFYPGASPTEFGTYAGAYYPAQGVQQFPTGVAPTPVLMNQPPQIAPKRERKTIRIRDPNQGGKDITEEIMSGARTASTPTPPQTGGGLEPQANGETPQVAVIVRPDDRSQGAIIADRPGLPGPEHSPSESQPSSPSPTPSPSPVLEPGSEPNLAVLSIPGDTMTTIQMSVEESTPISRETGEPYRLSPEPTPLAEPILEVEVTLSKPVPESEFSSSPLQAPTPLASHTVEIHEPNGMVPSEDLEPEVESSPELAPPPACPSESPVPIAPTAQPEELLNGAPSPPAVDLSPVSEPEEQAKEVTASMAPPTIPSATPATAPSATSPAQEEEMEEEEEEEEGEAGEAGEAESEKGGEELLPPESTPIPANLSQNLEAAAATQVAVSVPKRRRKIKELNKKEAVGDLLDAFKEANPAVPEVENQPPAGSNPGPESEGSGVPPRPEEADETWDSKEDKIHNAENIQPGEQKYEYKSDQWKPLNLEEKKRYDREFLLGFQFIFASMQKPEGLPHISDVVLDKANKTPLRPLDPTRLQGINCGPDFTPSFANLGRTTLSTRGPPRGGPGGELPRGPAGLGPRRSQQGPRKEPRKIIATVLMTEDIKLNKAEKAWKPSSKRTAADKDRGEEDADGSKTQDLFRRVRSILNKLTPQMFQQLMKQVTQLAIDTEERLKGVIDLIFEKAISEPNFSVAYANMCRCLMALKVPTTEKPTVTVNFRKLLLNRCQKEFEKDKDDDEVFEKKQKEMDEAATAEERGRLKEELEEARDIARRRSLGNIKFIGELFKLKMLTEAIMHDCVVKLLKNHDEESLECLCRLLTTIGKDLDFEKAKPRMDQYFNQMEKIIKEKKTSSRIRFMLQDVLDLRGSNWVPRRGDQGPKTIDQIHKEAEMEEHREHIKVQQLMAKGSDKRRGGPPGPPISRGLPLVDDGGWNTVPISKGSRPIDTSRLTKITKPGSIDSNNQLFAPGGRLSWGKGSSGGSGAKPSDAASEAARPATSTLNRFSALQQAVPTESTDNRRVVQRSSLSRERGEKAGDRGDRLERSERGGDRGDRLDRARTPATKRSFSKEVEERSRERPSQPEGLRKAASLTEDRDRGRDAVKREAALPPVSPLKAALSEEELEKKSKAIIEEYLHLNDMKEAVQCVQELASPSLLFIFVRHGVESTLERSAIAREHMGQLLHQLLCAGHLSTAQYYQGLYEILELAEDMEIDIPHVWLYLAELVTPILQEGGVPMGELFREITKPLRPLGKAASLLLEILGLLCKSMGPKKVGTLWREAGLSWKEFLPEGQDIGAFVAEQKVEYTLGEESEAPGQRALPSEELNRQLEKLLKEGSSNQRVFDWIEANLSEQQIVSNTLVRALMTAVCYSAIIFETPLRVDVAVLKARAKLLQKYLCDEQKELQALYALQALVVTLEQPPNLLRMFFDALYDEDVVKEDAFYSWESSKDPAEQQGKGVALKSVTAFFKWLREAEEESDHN
Experimental: as §3, §4

[6] = target: T3, eRF3 (Homo sapiens, UniProt P15170); assay: as above; type: binding; settings: lysate with or without 10 µg/mL RNase A, 1 h at room temperature (Figure 6B)
T3 construct: we performed immunoprecipitation from the pre-cleaned lysate of U251 cells; endogenous in cells; host or cells: U251 glioma cell lysate
T3 sequence (P15170 whole entry): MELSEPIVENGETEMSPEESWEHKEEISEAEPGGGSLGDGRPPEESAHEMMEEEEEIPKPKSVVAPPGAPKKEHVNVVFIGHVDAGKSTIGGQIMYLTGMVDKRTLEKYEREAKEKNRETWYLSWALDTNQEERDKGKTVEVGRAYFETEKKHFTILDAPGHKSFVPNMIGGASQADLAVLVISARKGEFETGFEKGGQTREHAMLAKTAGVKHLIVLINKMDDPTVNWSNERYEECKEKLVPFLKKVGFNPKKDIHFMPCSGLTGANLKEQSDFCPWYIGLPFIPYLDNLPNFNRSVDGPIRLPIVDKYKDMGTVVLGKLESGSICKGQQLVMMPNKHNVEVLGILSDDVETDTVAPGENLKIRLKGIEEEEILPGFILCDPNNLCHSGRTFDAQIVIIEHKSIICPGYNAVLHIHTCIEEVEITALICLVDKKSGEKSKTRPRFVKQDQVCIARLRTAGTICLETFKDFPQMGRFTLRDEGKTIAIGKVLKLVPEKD
Experimental: as §3, §4

[7] = target: T4, eIF4A (Homo sapiens, UniProt P60842); assay: as above; type: binding; settings: lysate with or without 10 µg/mL RNase A, 1 h at room temperature (Figure 6B)
T4 construct: we performed immunoprecipitation from the pre-cleaned lysate of U251 cells; endogenous in cells; host or cells: U251 glioma cell lysate
T4 sequence (P60842 whole entry): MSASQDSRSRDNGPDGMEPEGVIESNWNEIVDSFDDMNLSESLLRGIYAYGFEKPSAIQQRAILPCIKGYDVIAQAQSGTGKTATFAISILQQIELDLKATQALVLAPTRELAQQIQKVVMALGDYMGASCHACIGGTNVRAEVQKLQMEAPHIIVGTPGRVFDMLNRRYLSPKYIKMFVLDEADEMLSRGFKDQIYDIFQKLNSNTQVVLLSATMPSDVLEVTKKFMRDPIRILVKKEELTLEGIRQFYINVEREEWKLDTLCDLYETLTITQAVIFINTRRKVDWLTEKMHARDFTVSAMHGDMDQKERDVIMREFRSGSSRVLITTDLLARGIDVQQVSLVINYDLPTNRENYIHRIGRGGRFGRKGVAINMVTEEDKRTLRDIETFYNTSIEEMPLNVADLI
Experimental: as §2

[8] = immunoprecipitation with 20 µM of BSH, BSH-3R, BSH-11R (Figure 7A)
[9] = lysate with or without 10 µg/mL RNase A, 1 h at room temperature (Figure 6B)

passage through the plasma membrane [1]: could not | PABP1 binding, dependence on arginine length [4, 8]: bound to BSH in an RNA-dependent manner | RNA dependence of binding to PABP1 [4, 9]: bound to PABP1 in the presence of RNA | eIF4G binding, dependence on arginine length [5, 8]: did not observe a significant difference | binding to eRF3 [6]: did not bind to BSH
Substance: mercaptoundecahydrododecaborate [BSH]
co-precipitation of CD44 protein with anti-BSH antibody [2]: failed to precipitate CD44 | BSH immunofluorescent signal in cells [3]: did not show any signals in all types of cells | binding to PABP1 (immunoprecipitation) ([4]; pre-cleaned U251 lysate, 20 µM (Figure 6A)): had a binding capacity with poly(A)-binding protein 1 (PABP1) | RNA dependence of binding to eIF4G [5, 9]: little eIF4G was pulled-down with BSH in the presence of RNA | RNA dependence of binding to eIF4A [7]: did not bind to BSH in the presence or absence of RNA
